Laboratory results: EP0700399B1, “36-DERIVATIVES OF RIFAMYCINS AND THEIR USE AS ANTIMICROBIAL AGENTS” (GRUPPO LEPETIT S.P.A., priority 1993, dated 1994)
Read-outs that look alike come from different tables or passages of the source.

How the values were obtained:
[1] = tested on: Enterococc. faecalis ATCC 7080; assay: MIC by broth microdilution; assay type: cell-based, Enterococcus faecalis; details: Enterococcus faecalis, ATCC7080; internal code L149; read-out: MIC of the compounds
Clostridium perfringens = assay: microbe, parasite or virus in culture; assay type: cell-based; details: read-out: MIC of the compounds
[2] = tested on: Moraxella catarr. ATCC 8178; assay: MIC by broth microdilution; assay type: cell-based, Moraxella catharralis; details: ATCC8178, internal code L76, read-out: MIC of the compounds
Escherichia coli = assay: MIC by broth microdilution; assay type: cell-based; details: Escherichia coli; internal code L47; read-out: MIC of the compounds
[3] = tested on: Pseudomonas aerug. ATCC10145; assay: MIC by broth microdilution; assay type: cell-based, Pseudomonas aeruginosa; details: Pseudomonas, ATCC10145; internal code L4; read-out: MIC of the compounds
[4] = tested on: Proteus vulgaris ATCC 881; assay: MIC by broth microdilution; assay type: cell-based; details: Proteus vulgaris, ATCC881; internal code L79; read-out: MIC of the compounds
Streptococcus pyogenes = assay: MIC by broth microdilution; assay type: cell-based; details: Streptococcus pyogenes; internal code L49; read-out: MIC of the compounds
[5] = tested on: Staph. haemolyticus rifa-r^(2); assay: MIC by broth microdilution; assay type: cell-based; details: Staphylococcus haemolyticus, read-out: MIC of the compounds
Staph. aureus rifa-r^(1) = assay: MIC by broth microdilution; assay type: cell-based; details: Staphylococcus aureus, read-out: MIC of the compounds
[6] = tested on: Staph. epidermidis ATCC 12228; assay: MIC by broth microdilution; assay type: cell-based; details: Staphylococcus epidermidis, ATCC12228; internal code L147; read-out: MIC of the compounds
Klebsiella pneumoniae = assay: MIC by broth microdilution; assay type: cell-based; details: internal code L142, read-out: MIC of the compounds
Staph. aureus rifa-r^(2) = assay: MIC by broth microdilution; assay type: cell-based; details: Staphylococcus aureus, read-out: MIC of the compounds
Staphylococcus aureus = assay: MIC by broth microdilution; assay type: cell-based; details: Staphylococcus aureus; internal code L165; read-out: MIC of the compounds
[7] = tested on: Esch. coli K12 hyperpermeable; assay: MIC by broth microdilution; assay type: cell-based, Escherichia coli; details: Escherichia coli, read-out: MIC of the compounds
[8] = tested on: Bacteroides fragilis ATCC 25285; assay: MIC by broth microdilution; assay type: cell-based; details: Bacteroides fragilis, ATCC25285; internal code L1011; anaerobic, 48 hours; read-out: MIC of the compounds
[9] = tested on: Haemoph. influenzae ATCC 19418; assay: MIC by broth microdilution; assay type: cell-based, Haemophilus influenzae; details: Haemophilus influenzae, ATCC19418; internal code L970; 5% carbon dioxide, 48 hours; read-out: MIC of the compounds
Neisseria gonorrhoeae = assay: MIC by broth microdilution; assay type: cell-based; details: Neisseria gonorrhoeae; internal code L997; 5% carbon dioxide, 48 hours; read-out: MIC of the compounds
[10] = tested on: Esch. coli K12 rifa-r^(1); assay: MIC by broth microdilution; assay type: cell-based, Escherichia coli; details: Escherichia coli, read-out: MIC of the compounds
[11] = tested on: Propionibact. acnes ATCC 6919; assay: MIC by broth microdilution; assay type: cell-based, Propionibacterium acnes; details: Cutibacterium acnes, ATCC6919; internal code L1014; anaerobic, 48 hours; read-out: MIC of the compounds
Strept. pneumoniae = assay: MIC by broth microdilution; assay type: cell-based; details: Streptococcus pneumoniae; internal code L44; read-out: MIC of the compounds
[12] = tested on: Bacteroides fragilis ATCC 23745; assay: MIC by broth microdilution; assay type: cell-based; details: Bacteroides fragilis, ATCC23745; internal code L1010; anaerobic, 48 hours; read-out: MIC of the compounds
Esch. coli K12 wild type = assay: MIC by broth microdilution; assay type: cell-based; details: Escherichia coli, K12WILDTYPE, internal code G210, read-out: MIC of the compounds

Row | SMILES | MIC [1] | MIC (Clostridium perfringens) | MIC [2] | MIC (Escherichia coli) | MIC [3] | MIC [4] | MIC (Streptococcus pyogenes) | MIC [5] | MIC (Staph. aureus rifa-r^(1)) | MIC [6] | MIC (Klebsiella pneumoniae) | MIC (Staph. aureus rifa-r^(2)) | MIC (Staphylococcus aureus) | MIC [7] | MIC [8] | MIC [9] | MIC (Neisseria gonorrhoeae) | MIC [10] | MIC [11] | MIC (Strept. pneumoniae) | also measured
1 | CO[C@H]1/C=C/O[C@@]2(C)Oc3c(C)c(O)c4c(c3C2=O)C(=O)C=C(NC(=O)/C(C)=C\C=C\[C@H](C)[C@H](O)[C@@H](C)[C@@H](O)[C@@H](C)[C@H](OC(=O)CBr)[C@@H]1C)C4=O [Compound C1, 36-Bromorifamycin S] | 1 µg/mL | 0.0003 µg/mL | 0.008 µg/mL | 32 µg/mL | 32 µg/mL | 16 µg/mL | 0.03 µg/mL | 32 µg/mL | 0.25 µg/mL | 0.004 µg/mL | 128 µg/mL | 2 µg/mL | 0.004 µg/mL | 0.25 µg/mL | 1 µg/mL | 1 µg/mL | 1 µg/mL | > 128 µg/mL | 0.016 µg/mL | 0.03 µg/mL | 
2 | CO[C@H]1/C=C/O[C@@]2(C)Oc3c(C)c(O)c4c(c3C2=O)C(=O)C=C(NC(=O)/C(C)=C\C=C\[C@H](C)[C@H](O)[C@@H](C)[C@@H](O)[C@@H](C)[C@H](OC(=O)CF)[C@@H]1C)C4=O [Compound C2, 36-Fluororifamycin S] | 1 µg/mL |  |  | 128 µg/mL | 64 µg/mL | 32 µg/mL | 0.008 µg/mL |  |  | 0.015 µg/mL |  |  | 0.015 µg/mL |  |  | 2 µg/mL | 2 µg/mL |  | 0.13 µg/mL | 0.015 µg/mL | MIC ([5]; internal code L602, rifampicin resistant strain, highly resistant): ≥ 128 µg/mL; MIC (Staph. aureus rifa-r^(2); internal code L1282, rifampicin resistant strain, highly resistant): 64 µg/mL; MIC ([7]; internal code G1640, hyperpermeable): 1 µg/mL; MIC [12]: 2 µg/mL; MIC (Esch. coli K12 wild type): ≥ 128 µg/mL; MIC ([10]; internal code G1064, rifampicin resistant strain, moderately resistant): > 128 µg/mL
3 | CO[C@H]1/C=C/O[C@@]2(C)Oc3c(C)c(O)c4c(c3C2=O)C(=O)C=C(NC(=O)/C(C)=C\C=C\[C@H](C)[C@H](O)[C@@H](C)[C@@H](O)[C@@H](C)[C@H](OC(=O)CI)[C@@H]1C)C4=O [Compound C10, 36-Iodorifamycin S] | 2 µg/mL |  |  | 64 µg/mL | 32 µg/mL | 32 µg/mL | 0.015 µg/mL | 64 µg/mL |  | 0.06 µg/mL |  | 32 µg/mL | 0.06 µg/mL | 1 µg/mL |  | 4 µg/mL | 16 µg/mL | ≥ 128 µg/mL | 0.13 µg/mL | 0.03 µg/mL | MIC [12]: 0.5 µg/mL; MIC (Esch. coli K12 wild type): 128 µg/mL
4 | CO[C@H]1/C=C/O[C@@]2(C)Oc3c(C)c(O)c4c(c3C2=O)C(=O)C=C(NC(=O)/C(C)=C\C=C\[C@H](C)[C@H](O)[C@@H](C)[C@@H](O)[C@@H](C)[C@H](OC(=O)CSC)[C@@H]1C)C4=O [Compound C4, 36-Methylthiorifamycin S] | 0.5 µg/mL |  |  | 64 µg/mL | 32 µg/mL | 8 µg/mL | 0.008 µg/mL | 128 µg/mL |  | 0.001 µg/mL |  | 32 µg/mL | 0.008 µg/mL | 0.51 µg/mL |  | 1 µg/mL | 0.5 µg/mL | > 128 µg/mL | 0.06 µg/mL | 0.002 µg/mL | MIC [12]: 0.5 µg/mL; MIC (Esch. coli K12 wild type): 64 µg/mL
5 | CO[C@H]1/C=C/O[C@@]2(C)Oc3c(C)c(O)c4c(c3C2=O)C(=O)C=C(NC(=O)/C(C)=C\C=C\[C@H](C)[C@H](O)[C@@H](C)[C@@H](O)[C@@H](C)[C@H](OC(=O)COC(C)=O)[C@@H]1C)C4=O [Compound C13, 36-Acetyloxyrifamycin S] | 0.13 µg/mL | 0.0005 µg/mL | 0.004 µg/mL | 16 µg/mL | 32 µg/mL | 8 µg/mL | 0.008 µg/mL | 32 µg/mL | 0.25 µg/mL | 0.001 µg/mL | 64 µg/mL | 4 µg/mL | 0.002 µg/mL | ≤ 0.13 µg/mL | 0.5 µg/mL | 0.5 µg/mL | 0.25 µg/mL | > 128 µg/mL | 0.03 µg/mL | 0.008 µg/mL | 
6 | CO[C@H]1/C=C/O[C@@]2(C)Oc3c(C)c(O)c4c(c3C2=O)C(=O)C(N2CCOCC2)=C(NC(=O)/C(C)=C\C=C\[C@H](C)[C@H](O)[C@@H](C)[C@@H](O)[C@@H](C)[C@H](OC(=O)CBr)[C@@H]1C)C4=O [Compound C8, 36-Bromo-3-(4-morpholinyl)rifamycin S] | 0.5 µg/mL | 0.001 µg/mL | 0.002 µg/mL | 8 µg/mL | 16 µg/mL | 8 µg/mL | 0.06 µg/mL | 16 µg/mL | 0.5 µg/mL | 0.001 µg/mL | 16 µg/mL | 0.5 µg/mL | 0.002 µg/mL | ≤ 0.13 µg/mL | 0.03 µg/mL | 0.13 µg/mL | 0.03 µg/mL | > 128 µg/mL | 0.004 µg/mL | 0.03 µg/mL | 
7 | CO[C@H]1/C=C/O[C@@]2(C)Oc3c(C)c(O)c4c(c3C2=O)C(=O)C=C(NC(=O)/C(C)=C\C=C\[C@H](C)[C@H](O)[C@@H](C)[C@@H](O)[C@@H](C)[C@H](OC(=O)CCl)[C@@H]1C)C4=O [Compound C3, 36-Chlororifamycin S] | 0.25 µg/mL | 0.0003 µg/mL | 0.008 µg/mL | 32 µg/mL | 32 µg/mL | 8 µg/mL | 0.016 µg/mL | 64 µg/mL | 1 µg/mL | 0.008 µg/mL | 64 µg/mL | 16 µg/mL | 0.004 µg/mL | 0.25 µg/mL | 0.13 µg/mL | 1 µg/mL | 0.13 µg/mL | > 128 µg/mL | 0.03 µg/mL | 0.03 µg/mL | 
